Assay results from patent US20260217735A1, “HETEROCYCLES AND USES THEREOF” (Kumquat Biosciences Inc., priority 2023, published 2026).

How the values were obtained:
KRAS G12D = biological target: T1, KRAS G12D (Homo sapiens, UniProt P01116, G12D); assay: HTRF assay, KRAS G12D interaction with SOS1; format: biochemical; details: bins <500 nM / 500 nM to 1000 nM, read-out: Inhibition of KRAS G12D (IC50)
T1 construct: made in house; host or cells: E. coli, e.g. BL21 (DE3)

KRAS WT = biological target: T2, KRAS WT (Homo sapiens, UniProt P01116); assay: HTRF assay, wildtype KRAS interaction with SOS1; format: biochemical; details: bins <500 nM / 500 nM to 1000 nM, read-out: Inhibition of KRAS WT (IC50)
T2 construct: made in house; host or cells: E. coli, e.g. BL21 (DE3)

KRAS G12V = biological target: T3, KRAS G12V (Homo sapiens, UniProt P01116, G12V); assay: HTRF assay, KRAS G12V interaction with SOS1; format: biochemical; details: bins <500 nM / 500 nM to 1000 nM, read-out: Inhibition of KRAS G12V (IC50)
T3 construct: made in house; host or cells: E. coli, e.g. BL21 (DE3)

KRAS G12S = biological target: T4, KRAS G12S (Homo sapiens, UniProt P01116, G12S); assay: HTRF assay, KRAS G12S interaction with SOS1; format: biochemical; details: bins <500 nM / 500 nM to 1000 nM, read-out: Inhibition of KRAS G12S (IC50)
T4 construct: made in house; host or cells: E. coli, e.g. BL21 (DE3)

MiaPaca2 cells = assay: Ras cellular assay, growth of cells with K-Ras G12C mutation; format: cell-based; details: Homo sapiens, MIA PaCa-2; cell proliferation assay; bins ≤500 nM / >500 nM; read-out: Inhibition of MiaPaca2 Cells (IC50)
Outline: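 Anchorage-independent growth: G12C-mutant MIA PaCa-2 plated in soft agar, time-zero plate read the next day when compound was dosed (final DMSO 0.3%). After growth to day 10, MTS-type absorbance at 490/660 nm relative to time zero gave IC50 via four-parameter fitting.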

T2 sequence (P01116 1-188 isoform P01116-2): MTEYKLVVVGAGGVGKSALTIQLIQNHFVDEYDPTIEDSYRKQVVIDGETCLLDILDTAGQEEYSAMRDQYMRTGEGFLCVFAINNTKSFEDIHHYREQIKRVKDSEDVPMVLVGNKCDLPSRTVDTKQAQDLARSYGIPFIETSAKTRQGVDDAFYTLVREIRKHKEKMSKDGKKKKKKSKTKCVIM
T1 sequence (P01116 1-188 isoform P01116-2 G12D): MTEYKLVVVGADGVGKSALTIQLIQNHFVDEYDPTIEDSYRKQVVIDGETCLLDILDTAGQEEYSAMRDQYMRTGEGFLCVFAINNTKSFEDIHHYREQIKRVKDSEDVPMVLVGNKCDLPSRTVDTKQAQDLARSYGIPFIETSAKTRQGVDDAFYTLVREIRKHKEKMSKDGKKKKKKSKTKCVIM
T4 sequence (P01116 1-188 isoform P01116-2 G12S): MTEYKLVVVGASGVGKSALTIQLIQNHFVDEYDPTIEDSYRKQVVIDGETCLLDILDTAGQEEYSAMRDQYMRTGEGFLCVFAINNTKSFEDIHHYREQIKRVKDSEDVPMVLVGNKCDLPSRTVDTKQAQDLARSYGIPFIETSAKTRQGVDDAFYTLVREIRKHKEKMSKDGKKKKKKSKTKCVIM
T3 sequence (P01116 1-188 isoform P01116-2 G12V): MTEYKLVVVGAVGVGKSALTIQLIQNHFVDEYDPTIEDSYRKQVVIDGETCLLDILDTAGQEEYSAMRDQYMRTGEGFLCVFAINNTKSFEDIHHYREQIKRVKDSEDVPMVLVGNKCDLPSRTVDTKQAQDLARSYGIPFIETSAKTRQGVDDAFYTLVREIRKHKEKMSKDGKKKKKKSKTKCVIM

SMILES | IC50 (KRAS G12D) [nM] | IC50 (KRAS WT) [nM] | IC50 (KRAS G12V) [nM] | IC50 (KRAS G12S) [nM] | IC50 (MiaPaca2 cells) [nM]
CCN(c1nc(OC[C@@]23CCCN2C[C@H](F)C3)nc2c(F)c(-c3ccc(F)c4sc(N)c(C#N)c34)ncc12)[C@@H]1CCN(C(=O)n2cnc(Cl)n2)[C@@H]1C [Compound 177, 2-amino-4-(4-(((2R,3R)-1-(3-chloro-1H-1,2,4-triazole-1-carbonyl)-2-methylpyrrolidin-3-yl)(ethyl)amino)-8-fluoro-2-(((2R,7aS)-2-fluorotetrahydro-1H-pyrrolizin-7a(5H)-yl)methoxy)pyrido[4,3-d]pyrimidin-7-yl)-7-fluorobenzo[b]thiophene-3-carbonitrile] | < 500 | < 500 | < 500 | < 500 | ≤ 500
C[C@@H]1[C@H](N(C)c2nc(OC[C@@]34CCCN3C[C@H](F)C4)nc3c(F)c(-c4ccc(F)c5sc(N)c(C#N)c45)c(Cl)cc23)CCN1C(=O)n1ccnc1Cl [Compound 178, 2-amino-4-(6-chloro-4-(((2R,3R)-1-(2-chloro-1H-imidazole-1-carbonyl)-2-methylpyrrolidin-3-yl)(methyl)amino)-8-fluoro-2-(((2R,7aS)-2-fluorotetrahydro-1H-pyrrolizin-7a(5H)-yl)methoxy)quinazolin-7-yl)-7-fluorobenzo[b]thiophene-3-carbonitrile] | < 500 | < 500 | < 500 | < 500 | ≤ 500
CN(c1nc(OC[C@@]23CCCN2C[C@H](F)C3)nc2c(F)c(-c3ccc(F)c4sc(N)c(C#N)c34)c(Cl)cc12)[C@H]1CCN(C(=O)n2cncn2)C1 [Compound 179, 4-(4-(((S)-1-(1H-1,2,4-triazole-1-carbonyl)pyrrolidin-3-yl)(methyl)amino)-6-chloro-8-fluoro-2-(((2R,7aS)-2-fluorotetrahydro-1H-pyrrolizin-7a(5H)-yl)methoxy)quinazolin-7-yl)-2-amino-7-fluorobenzo[b]thiophene-3-carbonitrile] | < 500 | < 500 | < 500 | < 500 | ≤ 500
Cc1ncn(C(=O)N2CC[C@@H](N(C)c3nc(OC[C@@]45CCCN4C[C@H](F)C5)nc4c(F)c(-c5ccc(F)c6sc(N)c(C#N)c56)c(Cl)cc34)[C@H]2C)c1C [Compound 180, 2-amino-4-(6-chloro-4-(((2R,3R)-1-(4,5-dimethyl-1H-imidazole-1-carbonyl)-2-methylpyrrolidin-3-yl)(methyl)amino)-8-fluoro-2-(((2R,7aS)-2-fluorotetrahydro-1H-pyrrolizin-7a(5H)-yl)methoxy)quinazolin-7-yl)-7-fluorobenzo[b]thiophene-3-carbonitrile] | < 500 | < 500 | < 500 | < 500 | ≤ 500
CN(c1nc(OC[C@@]23CCCN2C[C@H](F)C3)nc2c(F)c(-c3ccc(F)c4sc(N)c(C#N)c34)c(Cl)cc12)[C@@H]1CCN(C(=O)n2cncn2)C1 [Compound 181, 4-(4-(((R)-1-(1H-1,2,4-triazole-1-carbonyl)pyrrolidin-3-yl)(methyl)amino)-6-chloro-8-fluoro-2-(((2R,7aS)-2-fluorotetrahydro-1H-pyrrolizin-7a(5H)-yl)methoxy)quinazolin-7-yl)-2-amino-7-fluorobenzo[b]thiophene-3-carbonitrile] | < 500 | < 500 | < 500 | < 500 | ≤ 500
CCN(c1nc(OC[C@@]23CCCN2[C@H](COc2ccc(C(F)(F)F)nn2)CC3)nc2c(F)c(-c3ccc(F)c4sc(N)c(C#N)c34)c(Cl)cc12)[C@@H]1CCN(C(=O)n2cc(C)nc2C)[C@@H]1C [Compound 182, 2-amino-4-(6-chloro-4-(((2R,3R)-1-(2,4-dimethyl-1H-imidazole-1-carbonyl)-2-methylpyrrolidin-3-yl)(ethyl)amino)-8-fluoro-2-(((3S,7aS)-3-(((6-(trifluoromethyl)pyridazin-3-yl)oxy)methyl)tetrahydro-1H-pyrrolizin-7a(5H)-yl)methoxy)quinazolin-7-yl)-7-fluorobenzo[b]thiophene-3-carbonitrile] | < 500 | < 500 | < 500 | < 500 | ≤ 500
C[C@@H]1[C@H](N(C)c2nc(OC[C@@]34CCCN3C[C@H](F)C4)nc3c(F)c(-c4ccc(F)c5sc(N)c(C#N)c45)c(Cl)cc23)CCN1C(=O)n1cnc(CC#N)c1 [Compound 183, 2-amino-4-(6-chloro-4-(((2R,3R)-1-(4-(cyanomethyl)-1H-imidazole-1-carbonyl)-2-methylpyrrolidin-3-yl)(methyl)amino)-8-fluoro-2-(((2R,7aS)-2-fluorotetrahydro-1H-pyrrolizin-7a(5H)-yl)methoxy)quinazolin-7-yl)-7-fluorobenzo[b]thiophene-3-carbonitrile] | < 500 | < 500 | < 500 | < 500 | ≤ 500
CCN(c1nc(OC[C@@]23CCCN2C[C@H](F)C3)nc2c(F)c(-c3ccc(F)c4sc(N)c(C#N)c34)c(I)cc12)[C@@H]1CCN(C(=O)n2cc(C)nc2C)[C@@H]1C [Compound 184, 2-amino-4-(4-(((2R,3R)-1-(2,4-dimethyl-1H-imidazole-1-carbonyl)-2-methylpyrrolidin-3-yl)(ethyl)amino)-8-fluoro-2-(((2R,7aS)-2-fluorotetrahydro-1H-pyrrolizin-7a(5H)-yl)methoxy)-6-iodoquinazolin-7-yl)-7-fluorobenzo[b]thiophene-3-carbonitrile] | < 500 | < 500 | < 500 | < 500 | ≤ 500
Cc1c(F)c(N)cc(-c2ncc3c(N(C)[C@@H]4CCN(C(=O)n5cnc(F)n5)[C@@H]4C)nc(OC[C@@]45CCCN4C[C@H](F)C5)nc3c2F)c1C(F)(F)F [Compound 185, ((2R,3R)-3-((7-(5-amino-4-fluoro-3-methyl-2-(trifluoromethyl)phenyl)-8-fluoro-2-(((2R,7aS)-2-fluorotetrahydro-1H-pyrrolizin-7a(5H)-yl)methoxy)pyrido[4,3-d]pyrimidin-4-yl)(methyl)amino)-2-methylpyrrolidin-1-yl)(3-fluoro-1H-1,2,4-triazol-1-yl)methanone] | < 500 | < 500 | < 500 | < 500 | ≤ 500
CCN(c1nc(OC[C@@]23CCCN2C[C@H](F)C3)nc2c(F)c(-c3ccc(F)c4sc(N)c(C#N)c34)c(Cl)cc12)[C@@H]1CCN(C(=O)n2ccnc2Cl)[C@@H]1C [Compound 186, 2-amino-4-(6-chloro-4-(((2R,3R)-1-(2-chloro-1H-imidazole-1-carbonyl)-2-methylpyrrolidin-3-yl)(ethyl)amino)-8-fluoro-2-(((2R,7aS)-2-fluorotetrahydro-1H-pyrrolizin-7a(5H)-yl)methoxy)quinazolin-7-yl)-7-fluorobenzo[b]thiophene-3-carbonitrile] | < 500 | < 500 | < 500 | < 500 | ≤ 500
